Key:
[1] = target: recombinant thioredoxin reductase 1 (TrxR1) (Homo sapiens (Human), UniProt Q16881); assay: Inhibition of recombinant TrxR1 (DTNB assay); format: biochemical; settings: 30 nM TrxR1, 250 μM NADPH, 15 minutes incubation, 2 mM DTNB; read-out: TrxR inhibition
Protocol: (§1) Small molecule inhibition of recombinant thioredoxin reductase 1 (TrxR1) and gluthathione reductase (GR) was examined in 96-well plate format. 30 nM TrxR1 was incubated in the presence of 250 μM NADPH, 0.1 mg/ml BSA, and various concentrations of the compounds (1% DMSO final) in 50 mM Tris (pH 7.5) and 2 mM EDTA buffer for 15 minutes. Following the incubation period, 2 mM DTNB was added to each well and the change in O.D. at 412 nm was followed. Percent activity was determined using DMSO vehicle and no TrxR1 (blank) controls. 2 nM GR was incubated in the presence of 250 μM NADPH, 0.1 mg/ml BSA, and various concentrations of compounds (1% DMSO final) in 50 mM Tris (pH 7.5) and 2 mM EDTA buffer for 15 minutes. Following the incubation period, 1 mM GSSG was added to each well and the change in O.D. at 340 nm was followed. Percent activity was determined using DMSO vehicle and no GR (blank) controls.

[2] = target: gluthathione reductase (GR) (Homo sapiens (Human), UniProt P00390); assay: Inhibition of recombinant GR (GSSG assay); format: biochemical; settings: 2 nM GR, 250 μM NADPH, 15 minutes incubation, 1 mM GSSG
Protocol: as §1

FaDu cells = assay: Head and neck cancer cell viability assay (Cell-Quanti Blue); format: cell-based; settings: Homo sapiens, 72 hrs, 10% FBS media containing 25 nM selenite
Protocol: (§2) FaDu cells were plated 2000 cells/well in 96-well black optical plates in the presence of 10% FBS media containing 25 nM selenite. The following day cells were treated with various concentrations of the compound of Example 1 (0.1% DMSO final) and incubated for 72 hrs. After the incubation Cell-Quanti Blue reagent was added to each well and incubated for additional 3 hrs. Fluorescence was read ex: 530 nm/em: 590 nm, and percent of viability was determined using DMSO vehicle and no cell (blank) controls.

MDA-MB-231 cells = assay: Breast cancer cell viability assay (Alamar Blue); format: cell-based; settings: Homo sapiens, 72 hrs, 10% FBS media containing 25 nM selenite
Protocol: as §2, with “MDA-MB-231” for “FaDu”, “compounds” for “the compound of Example 1”, “Alamar” for “Cell-Quanti”

U-87 MG = assay: Cancer cell viability assay (MTT), U-87 MG; format: cell-based; settings: 72 hrs, 10% FBS media
Protocol: (§3) Breast cancer and glioblastoma cell lines were plated 4000 cells/well in 96-well plates in the presence of 10% FBS media. The following day cells were treated with various concentrations of example compounds (0.1% DMSO final) and incubated for 72 hrs. After the incubation An MTT assay was performed to access cell viability. Percent of viability was determined using DMSO vehicle and no cell (blank) controls.

MDA-MB-231 = assay: Cancer cell viability assay (MTT), MDA-MB-231; format: cell-based; settings: 10% FBS media
Protocol: as §3

MDA-MB-468 = assay: Cancer cell viability assay (MTT), MDA-MB-468; format: cell-based; settings: 10% FBS media
Protocol: as §3

recombinant thioredoxin reductase 1 (TrxR1), sequence (Q16881 151-649): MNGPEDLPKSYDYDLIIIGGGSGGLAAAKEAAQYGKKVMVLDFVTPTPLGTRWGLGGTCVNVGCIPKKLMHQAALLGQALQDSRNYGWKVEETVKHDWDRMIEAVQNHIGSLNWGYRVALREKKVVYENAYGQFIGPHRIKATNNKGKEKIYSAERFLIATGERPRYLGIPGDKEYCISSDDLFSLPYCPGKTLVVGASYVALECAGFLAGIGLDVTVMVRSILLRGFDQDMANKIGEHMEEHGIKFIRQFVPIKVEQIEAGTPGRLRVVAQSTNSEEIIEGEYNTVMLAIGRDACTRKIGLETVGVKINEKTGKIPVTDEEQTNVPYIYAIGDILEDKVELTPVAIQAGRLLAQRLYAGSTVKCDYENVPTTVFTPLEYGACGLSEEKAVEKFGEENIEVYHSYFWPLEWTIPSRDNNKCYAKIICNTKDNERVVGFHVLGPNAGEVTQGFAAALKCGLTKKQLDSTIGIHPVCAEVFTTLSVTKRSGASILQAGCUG
gluthathione reductase (GR), sequence (P00390 44-522): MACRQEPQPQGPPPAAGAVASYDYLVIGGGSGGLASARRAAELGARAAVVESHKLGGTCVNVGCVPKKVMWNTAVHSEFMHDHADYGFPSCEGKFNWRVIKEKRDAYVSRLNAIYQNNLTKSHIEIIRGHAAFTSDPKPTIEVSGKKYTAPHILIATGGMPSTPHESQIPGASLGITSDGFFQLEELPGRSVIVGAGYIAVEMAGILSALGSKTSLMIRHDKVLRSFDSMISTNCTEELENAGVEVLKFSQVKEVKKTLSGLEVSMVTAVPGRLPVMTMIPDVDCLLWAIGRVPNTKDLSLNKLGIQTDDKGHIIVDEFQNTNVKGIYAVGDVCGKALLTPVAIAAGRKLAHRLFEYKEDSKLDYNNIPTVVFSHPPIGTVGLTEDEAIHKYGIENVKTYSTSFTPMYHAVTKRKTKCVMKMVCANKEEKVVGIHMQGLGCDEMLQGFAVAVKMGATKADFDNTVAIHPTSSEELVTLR

Row | SMILES | IC50 [1] | IC50 [2] | IC50 (FaDu cells) | IC50 (MDA-MB-231 cells) | IC50 (U-87 MG; Homo sapiens, U-87 MG) | IC50 (MDA-MB-231; Homo sapiens, MDA-MB-231, 72 hrs) | IC50 (MDA-MB-468; Homo sapiens, MDA-MB-468, 72 hrs) | IC50 (U-87 MG) | IC50 (MDA-MB-231; 72 hrs) | IC50 (MDA-MB-468; 72 hrs)
1 | COc1ccc([N+](=O)[O-])c(S(=O)(=O)c2ccccn2)n1 [Example 1, 6-Methoxy-3-nitro-2-(pyridin-2-ylsulfonyl)pyridine] | 0.0268 µM | 64.2 µM | 1.61 µM | 3.61 µM | 8.2 µM | 2.97 µM | 4.34 µM |  |  | 
2 | O=[N+]([O-])c1ccc(Cl)nc1S(=O)(=O)c1ccccn1 [Example 2, 6-Chloro-3-nitro-2-(pyridin-2-ylsulfonyl)pyridine] | 0.0569 µM | 9.89 µM | 0.61 µM |  |  |  |  |  |  | 
3 | CN(C)c1ccc([N+](=O)[O-])c(S(=O)(=O)c2ccccn2)n1 [Example 3, 6-Dimethylamino-3-nitro-2-(pyridin-2-ylsulfonyl)pyridine] | 0.558 µM | > 100 µM | 2.89 µM |  |  |  |  |  |  | 
4 | COc1ccc([N+](=O)[O-])c(S(=O)(=O)c2ccncc2)n1 [Example 4, 6-methoxy-3-nitro-2-(pyridin-4-ylsulfonyl)pyridine] | 0.000854 µM | 11.2 µM |  | > 100 µM |  |  |  |  |  | 
5 | COc1ccc([N+](=O)[O-])c(S(=O)(=O)c2ncccn2)n1 [Example 5, 2-((6-methoxy-3-nitropyridin-2-yl)sulfonyl)pyrimidine] | 0.0108 µM | > 100 µM |  | 4.54 µM |  |  |  |  |  | 
6 | COc1ccc([N+](=O)[O-])c(S(=O)(=O)c2ncc[nH]2)n1 [Example 6, 2-((1H-imidazol-2-yl)sulfonyl)-6-methoxy-3-nitropyridine] | 0.00399 µM | > 100 µM |  | 10.8 µM |  |  |  |  |  | 
7 | COc1ccc([N+](=O)[O-])c(S(=O)(=O)c2nc(C)cs2)n1 [Example 7, 2-((6-methoxy-3-nitropyridin-2-yl)sulfonyl)-4-methylthiazole] | 0.0069 µM | > 100 µM | 45.7 µM | 3.09 µM |  |  |  |  |  | 
8 | COc1ccc([N+](=O)[O-])c([S+]([O-])c2ccccn2)n1 (stereo not drawn) [Example 8, 6-Methoxy-3-nitro-2-(pyridin-2-ylsufinyl)-pyridine] | 0.0055 µM |  |  |  |  |  |  | 2.53 µM | 1.02 µM | 0.96 µM

Source: patent US11028067B2, “Heteroarylsulfonyl-substituted pyridines and their use in the treatment of cancer” (Oblique Therapeutics AB, priority 2017, dated 2021)
